Test results as given in patent US20040242660A1, “Substituted oxazolidinones for combinational therapy” (priority 2001, published 2004).
Like-named read-outs stand apart in the source and are kept apart here.

Experiments:
[1] = system: thrombus in the carotid artery of rats; experiment: Rat thrombosis model (FeCl3-induced carotid artery thrombus), combinations; format: in vivo; details: 1 mg/kg of each active ingredient; for Reduction in thrombus weight after oral treatment: 10 rats per group; for Reduction in thrombus weight after oral treatment / Statistical significance of the reduction in thrombus weight (Student's t-test): oral; for Statistical significance of the reduction in thrombus weight (Student's t-test): p<0.05 regarded as significant; for Antithrombotic effect: single dosage or combination
Protocol: a) In vivo Investigations in a Rat Thrombosis Model The carotid artery of rats (HSD CPB:WU, Harlan Winkelmann) was exposed under anesthesia. A piece of filter paper impregnated with an aqueous 10% strength FeCl3 solution (dissolved in 1N aqueous hydrochloric acid) was cautiously pushed underneath the exposed vessel in accordance with the method described by Kurz et al. […] After 3 minutes, the piece of filter paper was removed. The carotid artery was removed after 15 minutes, and the thrombus was detached and immediately weighed. […] The animals in the control group had been treated with the corresponding solvent. The statistical significance was calculated using Student's t-test. Values with p<0.05 are regarded as a statistically significant effect (Medical Statistics, M J Campbell, […], Second Edition, John Wiley & Sons).

[2] = system: thrombus formation in an arteriovenous shunt; experiment: Arteriovenous shunt model (rat), antithrombotic effect; format: in vivo
Protocol: b.1) Arteriovenous Shunt Model (Rat) Fasting male rats (strain: HSD CPB:WU) weighing 200-250 g were anesthetized with a Rompun/Ketavet solution (12 mg/kg/50 mg/kg). Thrombus formation was induced in an arteriovenous shunt by a method based on that described by Christopher N. Berry et al., Br. J. Pharmacol. (1994), 113, 1209-1214. For this purpose, the left jugular vein and the right carotid artery were exposed. An extracorporeal shunt was formed between the two vessels using a 10 cm-long polyethylene tube (PE 60). This polyethylene tube was secured in the middle by tying in a further 3 cm-long polyethylene tube (PE 160) which contained a roughened nylon thread forming a loop to produce a thrombogenic surface. The extracorporeal circulation was maintained for 15 minutes. The shunt was then removed and the nylon thread with the thrombus was immediately weighed. The blank weight of the nylon thread had been found before the start of the experiment. The test substances were administered either intravenously through the tail vein or orally by gavage to conscious animals before setting up the extracorporeal circulation.

human factor Xa (FXa) = human factor Xa (FXa) (Homo sapiens, UniProt P00742); experiment: Measurement of factor Xa inhibition (chromogenic substrate); format: biochemical; details: factor Xa inhibition
Sequence of human factor Xa (FXa) (P00742 235-488 limits assumed): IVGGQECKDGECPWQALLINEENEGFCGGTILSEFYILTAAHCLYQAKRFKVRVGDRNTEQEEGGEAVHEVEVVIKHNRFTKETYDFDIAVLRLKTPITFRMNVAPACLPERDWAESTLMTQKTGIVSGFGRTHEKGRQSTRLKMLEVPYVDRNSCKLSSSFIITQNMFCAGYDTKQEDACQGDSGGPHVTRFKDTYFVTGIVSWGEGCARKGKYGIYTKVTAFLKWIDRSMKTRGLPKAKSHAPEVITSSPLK
Sequence of human factor Xa (FXa) (P00742 41-179 partner limits assumed): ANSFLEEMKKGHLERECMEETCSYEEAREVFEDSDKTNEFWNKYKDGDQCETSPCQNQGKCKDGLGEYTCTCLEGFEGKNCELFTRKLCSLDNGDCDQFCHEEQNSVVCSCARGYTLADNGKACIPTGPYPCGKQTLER
Protocol: a.1) Measurement of Factor Xa Inhibition
In this case, factor Xa eliminates p-nitroaniline from the chromogenic substrate.
The test substances were dissolved in various concentrations in DMSO and incubated with human FXa (0.5 nmol/l dissolved in 50 mmol/l tris buffer [C,C,C-tris(hydroxymethyl)-aminomethane], 150 mmol/l NaCl, 0.1% BSA (bovine serum albumine), pH=8,3) at 25° C. for 10 minutes. Pure DMSO serves as control.

[3] = intravenous administration, read-out: ED50 [mg/kg] i.v.
[4] = oral administration, read-out: ED50 [mg/kg] p.o.

| IC50 (human factor Xa (FXa)) | SMILES | ED50 [2, 3] | other results |
| --- | --- | --- | --- |
|  | COC(=O)[C@H](c1ccccc1Cl)N1CCc2sccc2C1 [Clopidogrel, clopidogrel, reference compound] |  | Reduction in thrombus weight after oral treatment [1]: 28%; Statistical significance of the reduction in thrombus weight (Student's t-test) [1]: no effect (p > 0.05); Antithrombotic effect [1]: inactive |
|  | O=C(NC[C@H]1CN(c2ccc(N3CCOCC3)c(F)c2)C(=O)O1)c1ccc(Cl)s1 [Example 1, 5-chloro-N-{[(5S)-3-(3-fluoro-4-morpholinophenyl)-2-oxo-1,3-oxazolidin-5-yl]methyl}-2-thiophenecarboxamide] | 10 mg/kg |  |
|  | O=C(NC[C@H]1CN(c2ccc(N3CCCC3=O)cc2)C(=O)O1)c1ccc(Cl)s1 [Example 17, 5-Chloro-N-({(5S)-2-oxo-3-[4-(2-oxo-1-pyrrolidinyl)phenyl]-1,3-oxazolidin-5-yl}methyl)-2-thiophenecarboxamide] | 6 mg/kg |  |
|  | O=C(NC[C@H]1CN(c2ccc(N3CCOCC3=O)cc2)C(=O)O1)c1ccc(Cl)s1 [Example 44, 5-Chloro-N-({(5S)-2-oxo-3-[4-(3-oxo-4-morpholinyl)phenyl]-1,3-oxazolidin-5-yl}methyl)-2-thiophenecarboxamide] |  | Reduction in thrombus weight after oral treatment [1]: 22%; Statistical significance of the reduction in thrombus weight (Student's t-test) [1]: no effect (p > 0.05); Antithrombotic effect [1]: inactive; ED50 [2, 4]: 3 mg/kg |
|  | O=C(NCC1CN(c2ccc(N3CCOCC3=O)c(F)c2)C(=O)O1)c1ccc(Cl)s1 (stereo not drawn) [Example 95, 5-Chloro-N-({3-[3-fluoro-4-(3-oxo-4-morpholinyl)phenyl]-2-oxo-1,3-oxazolidin-5-yl}methyl)-2-thiophenecarboxamide] | 3 mg/kg |  |
|  | O=C(NCC1CN(c2ccc(N3CCOCC3=O)c(C(F)(F)F)c2)C(=O)O1)c1ccc(Cl)s1 (stereo not drawn) [Example 114, 5-Chloro-N-({2-oxo-3-[4-(3-oxo-4-morpholinyl)-3-(trifluoromethyl)phenyl]-1,3-oxazolidin-5-yl}methyl)-2-thiophenecarboxamide] | 3 mg/kg |  |
|  | Cc1cc(N2CC(CNC(=O)c3ccc(Cl)s3)OC2=O)ccc1N1CCOCC1=O (stereo not drawn) [Example 115, 5-Chloro-N-({3-[3-methyl-4-(3-oxo-4-morpholinyl)phenyl]-2-oxo-1,3-oxazolidin-5-yl}methyl)-2-thiophenecarboxamide] | 3 mg/kg |  |
|  | Nc1cc(N2CC(CNC(=O)c3ccc(Cl)s3)OC2=O)ccc1N1CCOCC1=O (stereo not drawn) [Example 123, N-({3-[3-Amino-4-(3-oxo-4-morpholinyl)phenyl]-2-oxo-1,3-oxazolidin-5-yl}-methyl)-5-chloro-2-thiophenecarboxamide] |  | ED50 [2, 4]: 3 mg/kg |
| 2.8 nM | O=C(NC[C@H]1CN(c2ccc(N3CCCCC3=O)cc2)C(=O)O1)c1ccc(Cl)s1 [Example 162, 5-Chloro-N-({(5S)-2-oxo-3-[4-(2-oxo-1-piperidinyl)phenyl]-1,3-oxazolidin-5-yl}-methyl)-2-thiophenecarboxamide] | 3 mg/kg |  |
| 380 nM | O=C(NC[C@H]1CN(c2ccc(N3CCC3=O)cc2)C(=O)O1)c1ccc(Cl)s1 [Example 164, 5-Chloro-N-({(5S)-2-oxo-3-[4-(2-oxo-1-azetidinyl)phenyl]-1,3-oxazolidin-5-yl}-methyl)-2-thiophenecarboxamide] |  |  |
| 2000 nM | CC(C)(C)OC(=O)N1CC(=O)N(c2ccc(N3CC(CNC(=O)c4ccc(Cl)s4)OC3=O)cc2)C(=O)C1 (stereo not drawn) [Example 165, tert-Butyl 4-{4-[5-({[(5-chloro-2-thienyl)carbonyl]amino}methyl)-2-oxo-1,3-oxazolidin-3-yl]phenyl}-3,5-dioxo-1-piperazinecarboxylate] |  |  |
| 500 nM | O=C(NCC1CN(c2ccc(S(=O)(=O)N3CCCC3)cc2)C(=O)O1)c1ccc(Cl)s1 (stereo not drawn) [Example 167, 5-Chloro-N-({2-oxo-3-[4-(1-pyrrolidinylsulfonyl)phenyl]-1,3-oxazolidin-5-yl}-methyl)-2-thiophenecarboxamide] |  |  |
